According to patent US6479435B1, “Diaryl ethers and processes for their preparation and herbicidal and desiccant compositions containing them” (ISK Americas Incorporated, priority 1997, dated 2002):

Key:
Format in all cases: in vivo
[1] = system: Johnsongrass (Sorghum halepense, SORHA); experiment: Post-emerge greenhouse herbicide test, phytotoxicity rating; settings: 14 days after application
Procedure, shortened: (§1)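 Plants at the 2-3 leaf stage, sown 8-21 days earlier, were track-sprayed post-emergence with compound in acetone plus 0.25% v/v non-ionic surfactant at 63-1000 g ai/ha (187 l/ha). Damage was rated at 14 days on a 0-100 scale (0 none, 100 all plants dead), for both crop injury and weed control.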

[2] = system: velvetleaf (Abutilon theophrasti, ABUTH); experiment: as above; settings: 14 days after application
Procedure, shortened: as §1

[3] = system: redroot pigweed (Amaranthus retroflexus, AMARE); experiment: as above; settings: 14 days after application
Procedure, shortened: as §1

[4] = system: barnyardgrass (Echinochloa crusgalli, ECHCG); experiment: as above; settings: 14 days after application
Procedure, shortened: as §1

[5] = system: large crabgrass (Digitaria sanguinalis, DIGSA); experiment: as above; settings: 14 days after application
Procedure, shortened: as §1

[6] = system: green foxtail (Setaria viridis, SETVI); experiment: as above; settings: 14 days after application
Procedure, shortened: as §1

[7] = system: ivyleaf morningglory (Ipomoea hederacea, IPOHE); experiment: as above; settings: 14 days after application
Procedure, shortened: as §1

[8] = system: sicklepod (Cassia obtusifolia, CASOB); experiment: as above; settings: 14 days after application
Procedure, shortened: as §1

[9] = system: lambsquarters (Chenopodium album, CHEAL); experiment: as above; settings: 14 days after application
Procedure, shortened: as §1

[10] = system: soybean (Glycine max L., var. Pella 86, SOY); experiment: Pre-emerge greenhouse test, crop damage rating; settings: 14 days after application, rating scale 0-100
Procedure, shortened: (§2)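 Seeds sown in sandy loam one day before track-sprayer application of acetone solutions at 125–1000 g ai/ha (187 l/ha), then surface-watered to incorporate and bottom-watered. Injury scored visually at 14 days on a 0–100 scale (0 no damage, 100 complete death).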

[11] = system: common ragweed (Ambrosia artemisiifolia L., AMBEL); experiment: Post-emerge greenhouse herbicide test, phytotoxicity rating; settings: 14 days after application
Procedure, shortened: as §1

[12] = system: soybean (Glycine max L., var. Pella 86, SOY); experiment: Post-emerge greenhouse test, crop damage rating; settings: 14 days after application
Procedure, shortened: as §1

[13] = system: field corn (Zea mays L., var. Dekalb 535, CORN); experiment: Post-emerge greenhouse test, crop damage rating; settings: 14 days after application
Procedure, shortened: as §1

[14] = system: upland rice (Oryza sp., var.Tebonnet, RICE); experiment: Post-emerge greenhouse test, crop damage rating; settings: 14 days after application
Procedure, shortened: as §1

[15] = system: Johnsongrass (Sorghum halepense, SORHA); experiment: Pre-emerge greenhouse herbicide test, phytotoxicity rating; settings: 14 days after application, rating scale 0-100
Procedure, shortened: as §2

[16] = system: velvetleaf (Abutilon theophrasti, ABUTH); experiment: as above; settings: 14 days after application, rating scale 0-100
Procedure, shortened: as §2

[17] = system: common ragweed (Ambrosia artemisiifolia L., AMBEL); experiment: as above; settings: 14 days after application, rating scale 0-100
Procedure, shortened: as §2

[18] = system: redroot pigweed (Amaranthus retroflexus, AMARE); experiment: as above; settings: 14 days after application, rating scale 0-100
Procedure, shortened: as §2

[19] = system: barnyardgrass (Echinochloa crusgalli, ECHCG); experiment: as above; settings: 14 days after application, rating scale 0-100
Procedure, shortened: as §2

[20] = system: large crabgrass (Digitaria sanguinalis, DIGSA); experiment: as above; settings: 14 days after application, rating scale 0-100
Procedure, shortened: as §2

[21] = system: green foxtail (Setaria viridis, SETVI); experiment: as above; settings: 14 days after application, rating scale 0-100
Procedure, shortened: as §2

[22] = system: ivyleaf morningglory (Ipomoea hederacea, IPOHE); experiment: as above; settings: 14 days after application, rating scale 0-100
Procedure, shortened: as §2

[23] = system: sicklepod (Cassia obtusifolia, CASOB); experiment: as above; settings: 14 days after application, rating scale 0-100
Procedure, shortened: as §2

[24] = system: lambsquarters (Chenopodium album, CHEAL); experiment: as above; settings: 14 days after application, rating scale 0-100
Procedure, shortened: as §2

[25] = system: field corn (Zea mays L., var. Dekalb 535, CORN); experiment: Pre-emerge greenhouse test, crop damage rating; settings: 14 days after application, rating scale 0-100
Procedure, shortened: as §2

[26] = system: upland rice (Oryza sp., var.Tebonnet, RICE); experiment: Pre-emerge greenhouse test, crop damage rating; settings: 14 days after application, rating scale 0-100
Procedure, shortened: as §2

O=c1n(CCCF)nnn1-c1cc(Oc2ncc(Br)cn2)c(Cl)cc1F [Compound 6-16]
SORHA phytotoxicity rating (0-100) ([1]; 63 g al/ha): 0 | SORHA phytotoxicity rating (0-100) ([1]; 500 g al/ha): 20 | ABUTH phytotoxicity rating (0-100) ([2]; 63 g al/ha): 100 | ABUTH phytotoxicity rating (0-100) ([2]; 500 g al/ha): 100 | AMARE phytotoxicity rating (0-100) ([3]; 63 g al/ha): 70 | AMARE phytotoxicity rating (0-100) ([3]; 500 g al/ha): 100 | ECHCG phytotoxicity rating (0-100) ([4]; 63 g al/ha): 0 | ECHCG phytotoxicity rating (0-100) ([4]; 500 g al/ha): 30 | DIGSA phytotoxicity rating (0-100) ([5]; 63 g al/ha): 0 | DIGSA phytotoxicity rating (0-100) ([5]; 500 g al/ha): 0 | SETVI phytotoxicity rating (0-100) ([6]; 63 g al/ha): 20 | SETVI phytotoxicity rating (0-100) ([6]; 500 g al/ha): 50 | IPOHE phytotoxicity rating (0-100) ([7]; 63 g al/ha): 95 | IPOHE phytotoxicity rating (0-100) ([7]; 500 g al/ha): 95 | CASOB phytotoxicity rating (0-100) ([8]; 63 g al/ha): 0 | CASOB phytotoxicity rating (0-100) ([8]; 500 g al/ha): 30 | CHEAL phytotoxicity rating (0-100) ([9]; 63 g al/ha): 80 | CHEAL phytotoxicity rating (0-100) ([9]; 500 g al/ha): 100 | crop damage rating SOY ([10]; 125 g ai/ha): 0 | crop damage rating SOY ([10]; 500 g ai/ha): 10 | AMBEL phytotoxicity rating (0-100) ([11]; 63 g al/ha): 15 | AMBEL phytotoxicity rating (0-100) ([11]; 500 g al/ha): 20 | SOY crop damage rating (0-100) ([12]; 63 g al/ha): 40 | SOY crop damage rating (0-100) ([12]; 500 g al/ha): 60 | CORN crop damage rating (0-100) ([13]; 63 g al/ha): 10 | CORN crop damage rating (0-100) ([13]; 500 g al/ha): 20 | RICE crop damage rating (0-100) ([14]; 63 g al/ha): 30 | RICE crop damage rating (0-100) ([14]; 500 g al/ha): 40 | phytotoxicity rating SORHA ([15]; 125 g ai/ha): 40 | phytotoxicity rating SORHA ([15]; 500 g ai/ha): 80 | phytotoxicity rating ABUTH ([16]; 125 g ai/ha): 100 | phytotoxicity rating ABUTH ([16]; 500 g ai/ha): 100 | phytotoxicity rating AMBEL ([17]; 125 g ai/ha): 0 | phytotoxicity rating AMBEL ([17]; 500 g ai/ha): 70 | phytotoxicity rating AMARE ([18]; 125 g ai/ha): 100 | phytotoxicity rating AMARE ([18]; 500 g ai/ha): 100 | phytotoxicity rating ECHCG ([19]; 125 g ai/ha): 0 | phytotoxicity rating ECHCG ([19]; 500 g ai/ha): 90 | phytotoxicity rating DIGSA ([20]; 125 g ai/ha): 80 | phytotoxicity rating DIGSA ([20]; 500 g ai/ha): 100 | phytotoxicity rating SETVI ([21]; 125 g ai/ha): 80 | phytotoxicity rating SETVI ([21]; 500 g ai/ha): 100 | phytotoxicity rating IPOHE ([22]; 125 g ai/ha): 50 | phytotoxicity rating IPOHE ([22]; 500 g ai/ha): 30 | phytotoxicity rating CASOB ([23]; 125 g ai/ha): 50 | phytotoxicity rating CASOB ([23]; 500 g ai/ha): 30 | phytotoxicity rating CHEAL ([24]; 125 g ai/ha): 100 | phytotoxicity rating CHEAL ([24]; 500 g ai/ha): 100 | crop damage rating CORN ([25]; 125 g ai/ha): 0 | crop damage rating CORN ([25]; 500 g ai/ha): 15 | crop damage rating RICE ([26]; 125 g ai/ha): 0 | crop damage rating RICE ([26]; 500 g ai/ha): 50

O=c1n(CCCF)nnn1-c1cc(Oc2ncccc2C(F)(F)F)c(Cl)cc1F [Compound 6-6]
SORHA phytotoxicity rating (0-100) ([1]; 63 g al/ha): 0 | SORHA phytotoxicity rating (0-100) ([1]; 500 g al/ha): 70 | ABUTH phytotoxicity rating (0-100) ([2]; 63 g al/ha): 50 | ABUTH phytotoxicity rating (0-100) ([2]; 500 g al/ha): 95 | AMARE phytotoxicity rating (0-100) ([3]; 63 g al/ha): 70 | AMARE phytotoxicity rating (0-100) ([3]; 500 g al/ha): 95 | ECHCG phytotoxicity rating (0-100) ([4]; 63 g al/ha): 20 | ECHCG phytotoxicity rating (0-100) ([4]; 500 g al/ha): 70 | DIGSA phytotoxicity rating (0-100) ([5]; 63 g al/ha): 0 | DIGSA phytotoxicity rating (0-100) ([5]; 500 g al/ha): 10 | SETVI phytotoxicity rating (0-100) ([6]; 63 g al/ha): 10 | SETVI phytotoxicity rating (0-100) ([6]; 500 g al/ha): 40 | IPOHE phytotoxicity rating (0-100) ([7]; 63 g al/ha): 60 | IPOHE phytotoxicity rating (0-100) ([7]; 500 g al/ha): 95 | CASOB phytotoxicity rating (0-100) ([8]; 63 g al/ha): 0 | CASOB phytotoxicity rating (0-100) ([8]; 500 g al/ha): 30 | CHEAL phytotoxicity rating (0-100) ([9]; 63 g al/ha): 90 | CHEAL phytotoxicity rating (0-100) ([9]; 500 g al/ha): 100 | crop damage rating SOY ([10]; 125 g ai/ha): 0 | crop damage rating SOY ([10]; 500 g ai/ha): 10 | AMBEL phytotoxicity rating (0-100) ([11]; 63 g al/ha): 20 | AMBEL phytotoxicity rating (0-100) ([11]; 500 g al/ha): 20 | SOY crop damage rating (0-100) ([12]; 63 g al/ha): 10 | SOY crop damage rating (0-100) ([12]; 500 g al/ha): 50 | CORN crop damage rating (0-100) ([13]; 63 g al/ha): 5 | CORN crop damage rating (0-100) ([13]; 500 g al/ha): 15 | RICE crop damage rating (0-100) ([14]; 63 g al/ha): 20 | RICE crop damage rating (0-100) ([14]; 500 g al/ha): 40 | phytotoxicity rating SORHA ([15]; 125 g ai/ha): 30 | phytotoxicity rating SORHA ([15]; 500 g ai/ha): 95 | phytotoxicity rating ABUTH ([16]; 125 g ai/ha): 80 | phytotoxicity rating ABUTH ([16]; 500 g ai/ha): 100 | phytotoxicity rating AMBEL ([17]; 125 g ai/ha): 30 | phytotoxicity rating AMBEL ([17]; 500 g ai/ha): 60 | phytotoxicity rating AMARE ([18]; 125 g ai/ha): 95 | phytotoxicity rating AMARE ([18]; 500 g ai/ha): 100 | phytotoxicity rating ECHCG ([19]; 125 g ai/ha): 20 | phytotoxicity rating ECHCG ([19]; 500 g ai/ha): 60 | phytotoxicity rating DIGSA ([20]; 125 g ai/ha): 20 | phytotoxicity rating DIGSA ([20]; 500 g ai/ha): 100 | phytotoxicity rating SETVI ([21]; 125 g ai/ha): 95 | phytotoxicity rating SETVI ([21]; 500 g ai/ha): 100 | phytotoxicity rating IPOHE ([22]; 125 g ai/ha): 30 | phytotoxicity rating IPOHE ([22]; 500 g ai/ha): 50 | phytotoxicity rating CASOB ([23]; 125 g ai/ha): 10 | phytotoxicity rating CASOB ([23]; 500 g ai/ha): 0 | phytotoxicity rating CHEAL ([24]; 125 g ai/ha): 100 | phytotoxicity rating CHEAL ([24]; 500 g ai/ha): 100 | crop damage rating CORN ([25]; 125 g ai/ha): 0 | crop damage rating CORN ([25]; 500 g ai/ha): 0 | crop damage rating RICE ([26]; 125 g ai/ha): 0 | crop damage rating RICE ([26]; 500 g ai/ha): 30
